Data on 20 molecules can be found in patent US20240043794A1, “Chemically Defined Serum Albumin Substitutes” (Life Technologies Corporation, priority 2020, published 2024).

Read-outs that look alike come from different tables or passages of the source.

Data set [1] relates to rat neuron cells. The data set can be described thus: Rat neuron viability with synthetic peptides replacing albumin. The data set is classed as cell-based. Particulars: for rat neuron cell growth: neurobasal medium with ITS, day 5, Calcein AM, FIG. 20; for viability of cultured rat neuron cells, HSA-like function: FIG. 11; for rat neuron cell viability, HSA supportive properties: culture medium lacking albumin, FIG. 10. An excerpt:
Albumins such as HSA have a metal binding site, which functions as a chelator of transition metals that are toxic to neuron cells. Applicants therefore investigated whether HSA may be replaced by a synthetic peptide, which mimics the high affinity binding of the functional metal binding site. […] Peptide B, which is the Peptide C sequence extended by 5 additional flanking HSA residues on either end, was similarly non-functional. […] Without wishing to be bound by scientific theory, the additional amino acid residues may block or otherwise inhibit the chelating functions of the Peptide C sequence.
The importance of Peptide C ionic property and sequence specificity in conferring enhancing properties to cell cultures was investigated. The tetrapeptide DAHK (SEQ ID NO:1) is a sequence comprising negatively, neutral, and two positively charged amino acids (−X++). […] To assess if amino acid sequence or charge specificity confers beneficial properties, a scrambled Peptide C sequence was prepared and tested. The scrambled peptide comprising the sequence AKDH (SEQ ID NO: 3; scramble) and charge of X+−+ was tested, and results are shown in FIG. 11.
To determine the impact of peptide length, Applicants assessed a variety of peptides that varied both in length and in the identity of the amino acid residue(s) that flank the Peptide C DAHK sequence (SEQ ID NO:1). Further, to assess the effect of ionic property, peptides were tested that included amino acid substitutions to the peptide of SEQ ID NO:1. The amino acid substitutions were designed to retain ionic and hydrophobic properties of SEQ ID NO:1, namely by preserving the order of negatively charged, hydrophobic uncharged, and positively charged residues. […] The cultures were further supplemented with rHSA, or a variation of the Peptide C derived synthetic peptide.
In a first set of cell cultures, the synthetic peptides included the DAHK (SEQ ID NO:1) amino acid sequence or peptides with additional residues on one or both the N-terminus and C-terminus of SEQ ID NO:1. On day 5 of culturing, the cells were labeled with Calcein AM and counted. […] That is, the length of adjacent residues on the N-terminus and C-terminus of the peptide is not critical for maintaining the function of peptide C unless the conformation is impacted as so not to maintain its beneficial properties in cell culture.

The test system of the next data set is neuronal cell. As to the kind of experiment: Interactions between B27 supplement components and albumins, neuronal cell viability. The conditions noted are these: B27-supplemented media. The data set is classed as cell-based. On the procedure:
Next, interactions between different components of B27 supplement and various albumins were analyzed (FIGS. 1B-1J). The effect of these molecular interactions were also assessed for their effect on neuronal cell stability in cell culture.

The subject of data set [2] is human neural stem cells (NSC). The data set can be described thus: B-27 supplemented cell culture performance of albumins, human NSC. The data set is classed as cell-based. Particulars: B-27 supplemented culture. As for the experimental part: (§1) Commercially available albumins were analyzed for performance in cell cultures. Bovine serum albumin (BSA), human serum albumin (HSA) and recombinant human serum albumin (Rec HSA) from various sources (including different manufacturers, bovine, human, recombinant HSA (made in yeast or rice), and Freestyle CHO MAX media (Thermo Fisher cat. no. K900020) were analyzed. B-27 (Thermo Fisher Scientific cat. no. 17504044) supplemented cell cultures for mouse pluripotent stem cells (PSC), primary rat neurons, or human neural stem cells (NSC) were prepared (approx. 0.5 to 1× final concentration of B27 in medium). The cultures varied only in the source or type of albumin present. Results shown in FIG. 1A illustrate that significant performance differences existed among the albumins tested, and further that performance is dependent on cell type. In fact, two cultures comprising the same cell line and differing only in addition of BSA1 or BSA2 differed in performance.

The test system of data set [3] is human neural stem cells (hNSC). As to the kind of experiment: hNSC proliferation, VI-CELL XR cell counting assay. The data set is classed as cell-based. Particulars: compared to BSA1. As for the experimental part:
(§2) BSA1 and BSA2 were further analyzed for their effect on stem cells. Mouse embryonic stem cells (mESC) or human neural stem cells (hNSC) were grown in cell culture media containing BSA1 or BSA2, and proliferation was measured. Proliferation of mESCs was measured using PrestoBlue assay (Thermo Fisher Scientific) according to the manufacturer's protocol. Proliferation of hNSCs was measured with VI-CELL™ XR cell counting assay (Beckman Coulter) according to the manufacturer's protocol.

In data set [4] the test system is FoxG1 expression in pluripotent stem cells (PSC). The data set can be described thus: FoxG1 expression and specification of PSC differentiation, ICC and qPCR. The data set is classed as cell-based, human. As for the experimental part:
Peptide C (SEQ ID NO:1) was assessed for its effect on cell differentiation. […] Without wishing to be bound by theory, this was likely due to variations in cholesterol levels within the albumin samples. To assess the effect of the tetrapeptide […] on cell differentiation, pluripotent stem cells (PSC) were cultured in the presence either BSA1, BSA2, or peptide C. […] Results are shown in FIGS. 17A and 17B, respectively. […] Upon differentiation, cells will develop their positional identity such as forebrain, midbrain, hindbrain etc. Specification is the step where PSC develop this positional identification.
Background: Real-time PCR tracks product formation cycle by cycle.

In data set [5] the test system is Mouse embryonic stem cells (mESC). The data set can be described thus: mESC proliferation, PrestoBlue assay. The data set is classed as cell-based. The conditions noted are these: compared to BSA1. As for the experimental part: as §2
For data set [6], the system named is mouse pluripotent stem cells (PSC). As to the kind of experiment: B-27 supplemented cell culture performance of albumins, mouse PSC. The data set is classed as cell-based. Particulars: B-27 supplemented culture. On the procedure:
as §1

Data set [7] deals with mouse embryonic stem cell (mESC). The data set can be described thus: Copper-stressed mESC proliferation, PRESTOBLUE viability. The data set is classed as cell-based. The conditions noted are these: 50 μM copper, 100 μg/mL or 50 μg/mL peptide. As for the experimental part: (§3) The effect of metals and synthetic peptides were further assessed in mouse embryonic stem cell (mESC) and HEK293 cell proliferation cultures. mESC and HEK293 cultures were spiked with 50 μM copper, thereby creating a toxic culture environment and inhibiting cell proliferation. […] PRESTOBLUE™ cell viability reagent (Thermo Fisher Scientific, Waltham, MA), was used to assess viability according to the manufacturer's protocol.

Another data set concerns HEK293 cells. As to the kind of experiment: Copper-stressed HEK293 proliferation, PRESTOBLUE viability. The data set is classed as cell-based. Particulars: 50 μM copper, 100 μg/mL or 50 μg/mL peptide. As for the experimental part:
as §3

Data set [8] has as its system rat neuron cells. Particulars: 50 μM copper, neurobasal medium with ITS.
Data set [9] can be described thus: Lot-to-lot consistency and shelf life of the peptide. The data set is classed as physicochemical. The conditions noted are these: multiple lots, in solution.
The test system of data set [10] is rat neurons.
Description: (§5) The effect of different BSAs on cell viability was tested using the eBioscience™ Calcein AM Viability Dye, according to manufacturer's protocol. Briefly, rat neurons were cultured in neurobasal medium supplemented with ITS and BSA1 or BSA2 at a concentration of 0.25%.
(§6) The ability of antioxidant to reverse iron-induced toxicity was then investigated. Tocopherol at a concentration of 2 μg/mL in neurobasal medium supplemented with lean supplement (Insulin-Transferrin-Selenium, ITS) was added to cultured rat neuron cells and either BSA1 or BSA2.
For data set [11], the system named is Rat cortical neuron (RCN) cells. As to the kind of experiment: Rat cortical neuron (RCN) survival in neurobasal medium with ITS. The data set is classed as cell-based. Particulars: for RCN cell survival: increasing concentrations, assessed on day 6. An excerpt: (§4) Trolox (6-hydroxy-2,5,7,8-tetramethylchroman-2-carboxylic acid), a water-soluble derivative of Vitamin E, was investigated as a replacement for albumin. […] Without any anti-oxidant, aged neurons started to degenerate at about day 4, leaving few viable neurons left on the plate.

The nature of another data set: Water solubility. The data set is classed as physicochemical. Particulars: compared to Vitamin E.
Source text: as §4

The test system of data set [12] is rat neurons. As to the kind of experiment: Calcein AM viability assay of rat neurons in neurobasal medium with ITS.
Description: as §5, §6
Data set [13] has as its system rat neurons. The data set can be described thus: Rat neuron viability with low or high GSH or lipoic acid. The data set is classed as cell-based. Particulars: low or high concentration, compared to control culture. As for the experimental part:
Applicants then tested chemically defined components that may replace the catalase and thiol antioxidant activity of albumins. GSH and lipoic acid were assessed for their ability to provide catalase and thiol antioxidant activity by culturing rat neurons in the presence of either low or high concentrations of GSH or lipoic acid and subsequently assaying cell viability.

Data set [14] is described as follows: Superoxide Dismutase (SOD) Colorimetric Activity Kit. Particulars: range of concentrations. The data set is classed as biochemical.
Description: Applicants first analyzed the superoxide dismutase (SOD) activity of various albumins, utilizing the Superoxide Dismutase (SOD) Colorimetric Activity Kit (Thermo Fisher Scientific, Waltham, MA), according to the manufacturer's protocol. Briefly, SOD activity was assessed utilizing an assay comprising the reaction of a substrate and Xanthine Oxidase to form superoxide (O^−2), the levels of which are decreased by SOD activity.
Next, the ability of chemically defined components to replace SOD antioxidant activity was tested. Mito-Tempo, which scavenges O2•^− in mitochondria, was compared with HSA for its ability to reduce superoxide, as assessed using the Superoxide Dismutase (SOD) Colorimetric Activity Kit (Thermo Fisher Scientific, Waltham, MA), according to the manufacturer's protocol.

On to FRRDAHKSEVA [SEQ ID NO:17], for which, in the data set with rat neuron cells [1], the “rat neuron cell growth” value is listed as “convey beneficial properties to cell culture”. Consider `CC(=O)Oc1c(C)c(C)c2c(c1C)CCC(C)(CCC[C@H](C)CCC[C@H](C)CCCC(C)C)O2` (stereo partly drawn) [X2, Tocopherol acetate], for which the “effect on neuronal cell viability of B27 component interacting with BSA and HSA” value with neuronal cell is “positive effects on neuronal cell viability”. Consider FRRDAHKSEV [SEQ ID NO:16], for which the “rat neuron cell growth” value with rat neuron cells [1] is given as “convey beneficial properties to cell culture”. For DTHK [counterpart BSA peptide], the “viability of cultured rat neuron cells, HSA-like function” value (“viability of cultured rat neuron cells” for short) in the data set on rat neuron cells [1] is listed as “functional in improving viability of cultured rat neuron cells”.

For “BSA2: BSA from a second source; fatty acid rich”, the cell culture performance entry in data set [2] and in data set [6] was “caused toxicity” each time. Also, in data set [3], the “proliferation of hNSC” value is “reduces proliferation”. In addition, in data set [4], the “specification of PSC differentiation” value was “specification of PSC differentiation was impacted”. Moreover, in data set [5], the “proliferation of mESC” value was “reduces proliferation”. Consider DAHK [Peptide C], for which the “rescue of copper stressed cells” value in data set [7] is recorded as “rescued the stressed cells in a concentration dependent manner”. In the data set with HEK293 cells, the “rescue of copper stressed cells” value is on record as “to a lesser extent”. The “specification of PSC differentiation” value in data set [4] is given as “no significant impact”. In addition, the “prevention of copper induced toxicity” value with rat neuron cells [8] is on record as “prevented toxicity even in the presence of copper”. For the same molecule, the “lot-to-lot consistency and shelf life” value in data set [9] was “lot-to-lot consistency and good shelf life, even in solution”. Also, in the data set with rat neuron cells [1], the “viability of cultured rat neuron cells” value is reported as “functional in improving viability of cultured rat neuron cells” and the “rat neuron cell viability, HSA supportive properties” value is “enhanced rat neuron cell viability”.

Regarding `[Fe]` [iron], in the data set on rat neurons [10], the rat neuron viability entry was “rat neuron viability was decreased”.

For `Cc1c(C)c2c(c(C)c1O)CCC(C)(C(=O)O)O2` (stereo not drawn) [Trolox, 6-hydroxy-2,5,7,8-tetramethylchroman-2-carboxylic acid], in [11] (compared to Vitamin E), the working range result is recorded as “wider working range than Vitamin E”. In addition, the RCN cell survival entry in [11] is listed as “reversed cell death”. In “Water solubility”, the water solubility entry is on record as “higher water solubility”.

With SAYSRGVFRRDAHKSEVAHRFKD [peptide A], in the data set on rat neuron cells [1], the “rat neuron cell viability, HSA supportive properties” value is “did not retain HSA supportive properties”. For Vitamin E, in data set [11], the RCN cell survival entry is reported as “reversed cell death”. For the molecule AKDH [reference compound], in the data set on rat neuron cells [1], the “viability of cultured rat neuron cells” value was “the HSA-like function was abolished”. Turning to RRDAHKS [SEQ ID NO:13], the “rat neuron cell growth” value with rat neuron cells [1] is on record as “convey beneficial properties to cell culture”. Tocopherol [reference compound]: the “effect on neuronal cell viability of B27 component interacting with BSA and HSA” value with neuronal cell is given as “positive effects on neuronal cell viability”. Also, the “reversal of decreased viability due to BSA1 or iron” value in the data set with rat neurons [12] (2 μg/mL) is “reversed decreased viability of the rat neuron cells”. Turning to “BSA1: BSA source with higher iron content; fatty acid free”, the cell culture performance entry in data set [2] and in data set [6] was “supportive properties” throughout. Besides, the “specification of PSC differentiation” value in [4] is reported as “specification of PSC differentiation was impacted”. The rat neuron viability result in the data set on rat neurons [12] (albumin at 0.25%, compared to BSA2) is reported as “reduced viability of rat neurons”. As for `N[C@@H](CCC(=O)N[C@@H](CS)C(=O)NCC(=O)O)C(=O)O` [GSH, glutathione], the “rat neuron cell viability” value in the data set on rat neurons [13] is “neither concentration of GSH tested showed significant effects on cell viability”.

`CC1(C)CC(NC(=O)C[P+](c2ccccc2)(c2ccccc2)c2ccccc2)CC(C)(C)N1[O]` [Mito-Tempo, (2-(2,2,6,6-tetramethylpiperidin-1-oxyl-4-ylamino)-2-oxoethyl)triphenylphosphonium chloride]: the superoxide levels entry in data set [14] is given as “decrease superoxide levels in a dose-dependent manner”. On to RRDAHKSE [SEQ ID NO:15], for which, in the data set with rat neuron cells [1], the “rat neuron cell growth” value was “convey beneficial properties to cell culture”. As for GVFRRDAHKSEVAH [Peptide B], the “rat neuron cell viability, HSA supportive properties” value in the data set with rat neuron cells [1] was “non-functional”. RRDAHK [SEQ ID NO:12]: the “rat neuron cell growth” value in the data set on rat neuron cells [1] is given as “convey beneficial properties to cell culture”.

Consider `O=C(O)CCCC[C@@H]1CCSS1` (racemic) [Lipoic acid, lipoic acid], for which the “rat neuron cell viability” value in the data set with rat neurons [13] was “enhanced rat neuron cell viability”.
